Source: article PMC9232612, “A phase 1b randomised controlled trial of a glucagon-like peptide-1 and glucagon receptor dual agonist IBI362 (LY3305677) in Chinese patients with type 2 diabetes” (Nature Communications, 2022)
Where “and” joins values, the source holds several entries; their conditions need not be identical. Equal values may be shown once.

How the values were obtained:
Format in all cases: in vivo, human
[1] = tested on: Chinese patients with T2D; test: Blood pressure (systolic, diastolic); conditions: mean
Source text: Primary outcomes of the study were the safety and tolerability of IBI362. Safety assessment included adverse events, physical examinations, laboratory tests (including lipase, amylase and calcitonin level measures), vital signs and 12-lead electrocardiogram. Adverse events were categorized according to the Medical Dictionary for Regulatory Activities system organ classes (SOCs) and preferred terms. Treatment-emergent adverse events (TEAEs) were monitored from the time of informed consent to the safety follow-up period. The severity of TEAEs (mild, moderate or severe) and the association between an event and the study drug were assessed by investigators based on pre-specified criteria.
Fig. S7: Change from baseline in waist circumference, BMI and blood pressure at week 12. a. CFB in waist circumference at week 12. b. CFB in BMI at week 12. c. CFB in blood pressure at week 12. Data are plotted as means +/- SD. a. IBI362 3.0 mg n = 7; IBI362 4.5 mg n = 5; IBI362 6.0 mg n = 8; Pooled placebo n = 11; Dulaglutide n = 6. b. IBI362 3.0 mg n = 7; IBI362 4.5 mg n = 5; […]
mg n = 6; IBI362 6.0 mg n = 8; Pooled placebo n = 11; Dulaglutide n = 6. BMI = body-mass index; CFB = change from baseline; DBP = diastolic blood pressure; SBP = systolic blood pressure; SD = standard deviation. Source data are provided as a Source Data file.
CFB in BMI at week 12 (kg/m2), […]
at week 12 (mm Hg), mean (SD)
CFB in waist circumference at week 12 (cm), mean (SD) […]

[2] = tested on: Chinese patients with T2D; test: Mixed-meal tolerance test (MTT): C peptide
Protocol: (§1) HbA1c (2200101, Bio-Rad, USA), blood glucose (05168791190, Roche Diagnostics, Germany), insulin (12017547122, Roche Diagnostics, Germany), C peptide (03184897190, Roche Diagnostics, Germany), total GLP-1 (GLP-1 [7–36] amide and its metabolite, GLP-1 [9–36] amide, 10-1278-01, Mercodia AB, Sweden) and OXM (AL-139, AnshLabs, USA) tests were performed according to the manufactures’ instruction manuals in a central laboratory (KingMed Diagnostics, Guangzhou, China). HbA1c was measured using a Bio-rad D-100 Haemoglobin Testing System (Bio-rad). Blood glucose was measured using a Roche Cobas c702 analyser (Roche Diagnostics). Insulin and C peptide were measured using a Roche […] analyser (Roche Diagnostics). GLP-1 and OXM were measured using a Tecan Infinite M Plex microplate reader (TECAN).
(§2) Standard non-compartmental pharmacokinetics methods were used to analyze IBI362 plasma concentration data using Pkanalix 2020R1 (Lixoft, Antony, France). Secondary efficacy outcomes included change from baseline to week 12 in HbA1c, fasting plasma glucose (FPG), fasting insulin levels, change from baseline to week 12 in post-mixed-meal tolerance test (post-MTT) glucose, insulin, C peptide, GLP-1 and OXM levels, as well as seven-point self-measured blood glucose (SMBG) profile.
IBI362 Innovent Biologics (Suzhou) Co., Ltd. CIBI362A101
3. Standard meal test (MTT) collection measures included: insulin, C-peptide, plasma glucose, glucagon, endogenous OXM, and endogenous GLP-1. The sampling points include: fasting, 30 min, 1h, 2h, 3h and 4h.
A total of 9 mL blood will be collected from each blood collection point. See the manual of the central laboratory for the detailed operation process. Fasting state refers to fasting for 10 hours. [ The standard meal is
instant noodles. The master Kang roast beef noodles (bucket noodles) purchased by the sponsor in a unified manner are removed from the oil bag. The noodles are soaked in boiled water and then removed. The seasoning
bag is added and mixed well. The time is counted from the first bite of eating. The noodles are eaten within 10 minutes, and 200 mL of water is drunk; or the instant noodles are directly opened with 200 mL of boiled
water to ensure that the noodles are eaten and the water or soup is drunk]. Visit days when MTT test is performed: 1 day prior to Cycle 1 administration, Day 80 (D80).
4. If the patient experiences drug-related adverse events during dose escalation and meets the protocol-specified tolerance criteria, dose adjustment is required at the investigator's discretion, and a standard meal test
should be performed 48 hours after the first dose after dose adjustment.
● Test by central laboratory

[3] = tested on: Chinese patients with T2D; test: Glycated haemoglobin A1c (HbA1c); conditions: for Change from baseline to week 12 in HbA1c, single patients / HbA1c at week 12, single patients: each line a single patient; for Change from baseline in HbA1c, LS mean / Change from baseline in HbA1c, LS mean (SE) / HbA1c: ETD versus placebo, LS mean (90% CI): MMRM
Protocol: as §1, §2
The analyses for change from baseline in HbA1c, FPG, post-MTT glucose AUC0–4 h and body weight were performed using the mixed-effect model for repeated measures (MMRM) with least-squares means and standard error provided. The MMRM included the corresponding baseline value, treatment, visit and treatment-by-visit as fixed effects and patient as a random effect. Mean change or mean percent change from baseline were analysed using a restricted maximum likelihood (REML)‐based repeated measures approach in combination with the Newton Raphson Algorithm. The fix effect of visit was fitted as a repeated effect and an unstructured covariance matrix was used. In case of non-converge, matrix like Variance Components and Compound Symmetry will be tested in a subsequent order until model‐convergence is achieved. The Kenward-Roger degree of freedom was used in estimating fixed effects. No missing data imputation was conducted. For HbA1c, FPG and body weight, point estimate of treatment difference versus placebo and 90% CI were provided for each IBI362 dose group and the dulaglutide group, with nominal p values.

## CC(C)C[C@H](NC(=O)[C@H](CC(C)C)NC(=O)[C@H](Cc1c[nH]c2ccccc12)NC(=O)[C@H](CCC(=O)O)NC(=O)[C@@H](NC(=O)[C@H](Cc1ccccc1)NC(=O)[C@H](CCC(=O)O)NC(=O)[C@H](CCCCNC(=O)COCCOCCNC(=O)COCCOCCNC(=O)CC[C@H](NC(=O)CCCCCCCCCCCCCCCCCCC(=O)O)C(=O)O)NC(=O)[C@H](C)NC(=O)[C@H](CCCCN)NC(=O)[C@H](CCCCN)NC(=O)[C@H](CCC(=O)O)NC(=O)[C@H](CC(=O)O)NC(=O)[C@H](CC(C)C)NC(=O)[C@H](Cc1ccc(O)cc1)NC(=O)[C@H](CCCCN)NC(=O)[C@H](CO)NC(=O)[C@H](Cc1ccc(O)cc1)NC(=O)[C@H](CC(=O)O)NC(=O)[C@H](CO)NC(=O)[C@@H](NC(=O)[C@H](Cc1ccccc1)NC(=O)[C@@H](NC(=O)CNC(=O)[C@H](CCC(N)=O)NC(=O)C(C)(C)NC(=O)[C@@H](N)Cc1c[nH]cn1)[C@@H](C)O)[C@@H](C)O)C(C)C)C(=O)N[C@@H](CCC(=O)O)C(=O)NCC(=O)NCC(=O)N1CCC[C@H]1C(=O)N[C@@H](CO)C(=O)N[C@@H](CO)C(=O)NCC(N)=O [IBI362]
[1]; IBI362 3.0 mg
  Change from baseline to week 12 in blood pressure, diastolic: -1.4 mm Hg
  Change from baseline to week 12 in blood pressure, systolic: -8.1 mm Hg
[1]; IBI362 4.5 mg
  Change from baseline to week 12 in blood pressure, diastolic: -5.2 mm Hg
  Change from baseline to week 12 in blood pressure, systolic: -6.7 mm Hg
[1]; IBI362 6.0 mg
  Change from baseline to week 12 in blood pressure, diastolic: 2.3 mm Hg
  Change from baseline to week 12 in blood pressure, systolic: -3.3 mm Hg
[2]; week 12, 0 min, 3.0 mg cohort, n=7
  C peptide during MTT, mean: 2.67 ng/mL
[2]; week 12, 0 min, 4.5 mg cohort, n=5
  C peptide during MTT, mean: 2.81 ng/mL
[2]; week 12, 0 min, 6.0 mg cohort, n=8
  C peptide during MTT, mean: 2.79 ng/mL
[2]; week 12, 30 min, 3.0 mg cohort, n=7
  C peptide during MTT, mean: 3.41 ng/mL
[2]; week 12, 30 min, 4.5 mg cohort, n=5
  C peptide during MTT, mean: 3.46 ng/mL
[2]; week 12, 30 min, 6.0 mg cohort, n=8
  C peptide during MTT, mean: 3.54 ng/mL
[2]; week 12, 60 min, 3.0 mg cohort, n=7
  C peptide during MTT, mean: 5.15 ng/mL
[2]; week 12, 60 min, 4.5 mg cohort, n=5
  C peptide during MTT, mean: 4.85 ng/mL
[2]; week 12, 60 min, 6.0 mg cohort, n=8
  C peptide during MTT, mean: 5.24 ng/mL
[2]; week 12, 120 min, 3.0 mg cohort, n=7
  C peptide during MTT, mean: 8.22 ng/mL
[2]; week 12, 120 min, 4.5 mg cohort, n=5
  C peptide during MTT, mean: 6.34 ng/mL
[2]; week 12, 120 min, 6.0 mg cohort, n=8
  C peptide during MTT, mean: 8.25 ng/mL
[2]; week 12, 180 min, 3.0 mg cohort, n=7
  C peptide during MTT, mean: 7.74 ng/mL
[2]; week 12, 180 min, 4.5 mg cohort, n=5
  C peptide during MTT, mean: 7.22 ng/mL
[2]; week 12, 180 min, 6.0 mg cohort, n=8
  C peptide during MTT, mean: 7.50 ng/mL
[2]; week 12, 240 min, 3.0 mg cohort, n=7
  C peptide during MTT, mean: 5.91 ng/mL
[2]; week 12, 240 min, 4.5 mg cohort, n=5
  C peptide during MTT, mean: 5.24 ng/mL
[2]; week 12, 240 min, 6.0 mg cohort, n=8
  C peptide during MTT, mean: 5.41 ng/mL
[3]; 3.0 mg cohort, n=8
  Percent of patients with change from baseline to week 12 in HbA1c <1.0%: 0.0%
  Percent of patients with change from baseline to week 12 in HbA1c ≥1.0% and <1.5%: 37.5%
  Percent of patients with change from baseline to week 12 in HbA1c ≥1.5% and <2.0%: 25.0%
  Percent of patients with change from baseline to week 12 in HbA1c ≥2.0%: 25.0%
[3]; 4.5 mg cohort, n=8
  Percent of patients with change from baseline to week 12 in HbA1c <1.0%: 0.0%
  Percent of patients with change from baseline to week 12 in HbA1c ≥1.0% and <1.5%: 12.5%
  Percent of patients with change from baseline to week 12 in HbA1c ≥1.5% and <2.0%: 25.0%
  Percent of patients with change from baseline to week 12 in HbA1c ≥2.0%: 37.5%
[3]; 6.0 mg cohort, n=8
  Percent of patients with change from baseline to week 12 in HbA1c <1.0%: 25.0%
  Percent of patients with change from baseline to week 12 in HbA1c ≥1.0% and <1.5%: 0.0%
  Percent of patients with change from baseline to week 12 in HbA1c ≥1.5% and <2.0%: 37.5%
  Percent of patients with change from baseline to week 12 in HbA1c ≥2.0%: 37.5%
[3]; all IBI362 cohorts, n=24
  Percent of patients with change from baseline to week 12 in HbA1c <1.0%: 8.3%
  Percent of patients with change from baseline to week 12 in HbA1c ≥1.0% and <1.5%: 16.7%
  Percent of patients with change from baseline to week 12 in HbA1c ≥1.5% and <2.0%: 29.2%
  Percent of patients with change from baseline to week 12 in HbA1c ≥2.0%: 33.3%
[3]; 3.0 mg cohort
  Change from baseline to week 12 in HbA1c, single patients: -2.8% and -1.4% and -1.0% and -1.9% and -1.8% and -2.7% and -1.3%
  HbA1c at week 12, single patients: 6.4% and 6.1% and 8.6% and 7.3% and 6.8% and 6.7% and 7.4%
[3]; 4.5 mg cohort
  Change from baseline to week 12 in HbA1c, single patients: -1.2% and -1.7% and -2.3% and -3.3% and -3.7%
  HbA1c at week 12, single patients: 6.1% and 6.3% and 5.7% and 6.9% and 6.8% and 6.0%
[3]; 6.0 mg cohort
  HbA1c at week 12, single patients: 7.0% and 6.8% and 5.9% and 6.1% and 7.1% and 5.8% and 7.8%
[3]; week 4, 3.0 mg cohort, n=8
  Change from baseline in HbA1c, LS mean: -0.38%
[3]; week 4, 4.5 mg cohort, n=8
  Change from baseline in HbA1c, LS mean: -0.80%
[3]; week 4, 6.0 mg cohort, n=8
  Change from baseline in HbA1c, LS mean: -0.61%
[3]; week 8, 3.0 mg cohort, n=8
  Change from baseline in HbA1c, LS mean: -0.98%
[3]; week 8, 4.5 mg cohort, n=8
  Change from baseline in HbA1c, LS mean: -1.58%
[3]; week 8, 6.0 mg cohort, n=8
  Change from baseline in HbA1c, LS mean: -1.32%
[3]; week 12, 3.0 mg cohort, n=8
  Change from baseline in HbA1c, LS mean (SE): -1.46%
[3]; week 12, 3.0 mg cohort
  HbA1c: ETD versus placebo, LS mean (90% CI): −0.59%
[3]; week 12, 4.5 mg cohort, n=8
  Change from baseline in HbA1c, LS mean (SE): -2.23%
[3]; week 12, 4.5 mg cohort
  HbA1c: ETD versus placebo, LS mean (90% CI): −1.35%
[3]; week 12, 6.0 mg cohort, n=8
  Change from baseline in HbA1c, LS mean (SE): -1.66%
[3]; week 12, 6.0 mg cohort
  HbA1c: ETD versus placebo, LS mean (90% CI): −0.79%
[3]; week 12, all IBI362 cohorts
  patients achieving HbA1c level of 6.5% or lower: nine
[3]; week 12, all IBI362 cohorts, n=24
  patients achieving ≥1.5% reductions in HbA1c from baseline: 62.5%
